# Results as given in ChEMBL document CHEMBL4229557, “Synthesis and SAR of new isoxazole-triazole bis-heterocyclic compounds as analogues of natural lignans with antiparasitic activity” (Bioorg Med Chem, 2018).
# Calls of active or inactive are those of the source. No cut-off for these calls is given here.
# Experiments:
# [1] = system: Trypanosoma cruzi; assay: Growth inhibition of Trypanosoma cruzi Tulahuen amastigote forms infected in human THP1 cells after 72 hrs by beta-galactosidase reporter gene assay; assay type: functional
# [2] = system: Leishmania amazonensis; assay: Growth inhibition of Leishmania amazonensis MHOM/BR/77/LTB0016 amastigote forms expressing beta-galactosidase infected in human THP1 cells at 100 uM by colorimetrc assay relative to control; assay type: functional; settings: for inhibition of growth at 100 µM: MHOM/BR/77/LTB0016, THP-1, read-out: GI
# [3] = system: Trypanosoma cruzi; assay: Growth inhibition of Trypanosoma cruzi Tulahuen amastigote forms infected in human THP1 cells at 100 uM after 72 hrs by beta-galactosidase reporter gene assay relative to control; assay type: functional; settings: THP-1, 72 h, read-out: GI
# [4] = Selectivity index, ratio of CC50 for human THP1 cells to GI50 for Trypanosoma cruzi Tulahuen amastigote forms infected in human THP1 cells; assay type: toxicity, cell-based; settings: read-out: Selectivity Index
# [5] = target: Trypanothione reductase (Trypanosoma cruzi) (UniProt P28593); assay: Inhibition of Trypanosoma cruzi Trypanothione reductase expressed in Escherichia coli BL21(DE3) at 100 uM using T(S)2 as substrate incubated for 30 mins measured for 30 mins in presence of NADPH by DTNB reagent based assay relative to control
# Trypanothione reductase (Trypanosoma cruzi), sequence (P28593 whole entry, looked up): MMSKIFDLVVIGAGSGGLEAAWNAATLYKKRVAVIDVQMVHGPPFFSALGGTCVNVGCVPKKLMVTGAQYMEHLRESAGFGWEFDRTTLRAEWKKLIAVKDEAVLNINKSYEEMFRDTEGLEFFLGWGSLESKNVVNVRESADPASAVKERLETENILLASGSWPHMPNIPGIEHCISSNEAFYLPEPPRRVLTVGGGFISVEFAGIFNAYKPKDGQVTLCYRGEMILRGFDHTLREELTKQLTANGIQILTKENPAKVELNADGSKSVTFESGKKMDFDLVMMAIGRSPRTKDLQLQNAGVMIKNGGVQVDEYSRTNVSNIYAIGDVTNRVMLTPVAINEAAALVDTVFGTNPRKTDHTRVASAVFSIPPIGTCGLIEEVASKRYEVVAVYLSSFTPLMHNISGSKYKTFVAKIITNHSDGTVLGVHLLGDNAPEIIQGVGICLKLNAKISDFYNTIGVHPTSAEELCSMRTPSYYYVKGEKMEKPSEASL
# [6] = Cytotoxicity against human THP1 cells after 72 hrs by MTT assay; assay type: cell-based; settings: THP-1 cells
# [7] = system: Trypanosoma cruzi; assay: Growth inhibition of Trypanosoma cruzi Tulahuen amastigote forms infected in human THP1 cells at 20 uM after 72 hrs by beta-galactosidase reporter gene assay relative to control; assay type: functional; settings: THP-1, 72 h, read-out: GI
# [8] = system: Leishmania amazonensis; assay: Growth inhibition of Leishmania amazonensis MHOM/BR/77/LTB0016 amastigote forms expressing beta-galactosidase infected in human THP1 cells at 2 uM by colorimetrc assay relative to control; assay type: functional; settings: MHOM/BR/77/LTB0016, THP-1, read-out: GI
Structure (SMILES),"GI50 ([1]; THP-1, 72 h) [µM]",growth inhibition (GI) [2],inhibition of growth at 100 µM [3] [%],also measured
OCc1ccc(-c2cn(Cc3cc(-c4ccccc4)no3)nn2)cc1,–,inactive,0,GI50 [1]: inactive
Fc1ccc(-c2cn(Cc3cc(-c4ccccc4)no3)nn2)cc1,–,inactive,0,GI50 [1]: inactive
Nc1ccc(-c2cn(Cc3cc(-c4ccccc4)no3)nn2)cc1,–,inactive,0,GI50 [1]: inactive
COc1ccc(-c2cc(Cn3cc(-c4cc(C)c(C)cc4C)nn3)on2)cc1OC,55.2,inactive,89.6,selectivity ratio [4]: > 9; inhibition [5]: 9%; CC50 at 72 h [6]: > 500 µM
COc1ccc(-c2cn(Cc3cc(-c4ccc(OC)c(OC)c4)no3)nn2)cc1,22.7,inactive,81.9,selectivity ratio [4]: > 22; inhibition [5]: 9.6%; CC50 at 72 h [6]: > 500 µM
Cc1ccc(C)c(-c2cn(Cc3cc(-c4ccccc4)no3)nn2)c1,–,inactive,0,GI50 [1]: inactive
FC(F)(F)Oc1ccc(-c2cn(Cc3cc(-c4ccc5c(c4)OCO5)no3)nn2)cc1,> 100,inactive,26.8,–
CN(C)c1ccc(-c2cn(Cc3cc(-c4ccccc4)no3)nn2)cc1,> 100,inactive,32.6,–
CCCCCc1ccc(-c2cn(Cc3cc(-c4ccc(OC)cc4)no3)nn2)cc1,> 100,inactive,13.4,–
COc1ccc(-c2cc(Cn3cc(-c4cc(OC)cc(OC)c4)nn3)on2)cc1,> 100,inactive,3.6,–
COc1ccc(-c2cc(Cn3cc(-c4cc(C)c(C)cc4C)nn3)on2)cc1,> 100,inactive,33.4,–
Cc1cc(C)c(-c2cn(Cc3cc(-c4ccc5c(c4)OCO5)no3)nn2)cc1C,> 100,inactive,13.4,–
COc1ccc2cc(-c3cn(Cc4cc(-c5ccc(OC)c(OC)c5)no4)nn3)ccc2c1,> 100,inactive,26.2,–
COc1ccc(-c2cn(Cc3cc(-c4ccccc4)no3)nn2)c(C)c1,> 100,inactive,18.6,–
COc1ccc(-c2cn(Cc3cc(-c4ccccc4)no3)nn2)cc1,> 100,inactive,43.3,–
CCCCCc1ccc(-c2cn(Cc3cc(-c4ccccc4)no3)nn2)cc1,–,inactive,0,GI50 [1]: inactive
COc1ccc(-c2cc(Cn3cc(-c4ccccc4OC)nn3)on2)cc1OC,> 100,inactive,43.7,–
COc1cc(OC)cc(-c2cn(Cc3cc(-c4ccc5c(c4)OCO5)no3)nn2)c1,49.9,inactive,87.9,selectivity ratio [4]: 4.2; inhibition [5]: 0%; CC50 at 72 h [6]: 208 µM
COc1ccc(-c2cn(Cc3cc(-c4ccc5c(c4)OCO5)no3)nn2)cc1,> 100,–,9.9,inhibition of growth at 100 µM [2]: 2.8%
O=C(Cn1ccnc1[N+](=O)[O-])NCc1ccccc1 [BENZNIDAZOLE],10.2,–,–,selectivity ratio [4]: > 49; inhibition of growth at 20 µM [7]: 93%; CC50 at 72 h [6]: > 500 µM
COc1ccc(-c2cc(Cn3cc(-c4ccc(N)cc4)nn3)on2)cc1OC,> 100,inactive,42.8,–
C[C@@H]1[C@H](O)[C@@H](C)/C=C/C=C/C=C/C=C/C=C/C=C/C=C/[C@H](O[C@@H]2O[C@H](C)[C@@H](O)[C@H](N)[C@@H]2O)C[C@@H]2O[C@](O)(C[C@@H](O)C[C@@H](O)[C@H](O)CC[C@@H](O)C[C@@H](O)CC(=O)O[C@H]1C)C[C@H](O)[C@H]2C(=O)O [AMPHOTERICIN B],–,–,–,inhibition of growth at 2 µM [8]: 96.5%
COc1cc(OC)cc(-c2cn(Cc3cc(-c4ccc(OC)c(OC)c4)no3)nn2)c1,30.3,inactive,74.8,selectivity ratio [4]: > 16.5; inhibition [5]: 8.9%; CC50 at 72 h [6]: > 500 µM

# More lines, main results first:
"GI50 ([1]; THP-1, 72 h) [µM]",Structure (SMILES),growth inhibition (GI) [2],inhibition of growth at 100 µM [3] [%],also measured
> 100,COc1ccc(-c2cn(Cc3cc(-c4ccc(OC)cc4)no3)nn2)cc1,inactive,43.2,–
14,CN(C)CCCN1c2ccccc2CCc2ccc(Cl)cc21 [CLOMIPRAMINE],–,–,–
> 100,COc1ccc(-c2cc(Cn3cc(-c4ccc([N+](=O)[O-])cc4)nn3)on2)cc1OC,inactive,37.8,–
> 100,COc1ccc(-c2cc(Cn3cc(-c4ccc(F)cc4)nn3)on2)cc1OC,inactive,32,–
> 100,COc1ccc(-c2cc(Cn3cc(-c4cc(C)ccc4C)nn3)on2)cc1OC,inactive,4,–
> 100,FC(F)(F)Oc1ccc(-c2cn(Cc3cc(-c4ccccc4)no3)nn2)cc1,inactive,28.7,–
54.5,COc1cc(OC)cc(-c2cn(Cc3cc(-c4ccccc4)no3)nn2)c1,inactive,95.3,selectivity ratio [4]: 2.6; inhibition [5]: 0%; CC50 at 72 h [6]: 143 µM
40.1,COc1ccc(-c2cc(Cn3cc(-c4ccc(OC(F)(F)F)cc4)nn3)on2)cc1OC,inactive,78.5,selectivity ratio [4]: 5.7; inhibition [5]: 0%; CC50 at 72 h [6]: 227 µM
12.2,CCCCCc1ccc(-c2cn(Cc3cc(-c4ccc(OC)c(OC)c4)no3)nn2)cc1,inactive,80.2,selectivity ratio [4]: > 41; inhibition [5]: 0%; CC50 at 72 h [6]: > 500 µM
> 100,CCCCCc1ccc(-c2cn(Cc3cc(-c4ccc5c(c4)OCO5)no3)nn2)cc1,–,48.9,inhibition of growth at 100 µM [2]: 1.7%
> 100,COc1ccc2cc(-c3cn(Cc4cc(-c5ccccc5)no4)nn3)ccc2c1,inactive,43.1,–
> 100,COc1ccc(-c2cc(Cn3cc(-c4ccc(CO)cc4)nn3)on2)cc1OC,inactive,43.4,–
> 100,COc1ccc(-c2cc(Cn3cc(-c4ccccc4)nn3)on2)cc1OC,inactive,12.2,–
> 100,Cc1ccc(-c2cn(Cc3cc(-c4ccccc4)no3)nn2)cc1,inactive,45.2,–
88.4,Cc1cc(C)c(-c2cn(Cc3cc(-c4ccccc4)no3)nn2)cc1C,inactive,89.5,selectivity ratio [4]: 2.3; inhibition [5]: 0%; CC50 at 72 h [6]: 200 µM
> 100,c1ccc(-c2cn(Cc3cc(-c4ccccc4)no3)nn2)cc1,inactive,33.7,–
> 100,COc1ccc(-c2cc(Cn3cc(-c4ccc(N(C)C)cc4)nn3)on2)cc1OC,inactive,33.9,–
> 100,COc1ccccc1-c1cn(Cc2cc(-c3ccccc3)no2)nn1,inactive,12.4,–
> 100,COc1ccc(-c2cc(Cn3cc(-c4ccc(OC(F)(F)F)cc4)nn3)on2)cc1,inactive,26,–
> 100,COc1ccc(-c2cc(Cn3cc(-c4ccc(C)cc4)nn3)on2)cc1OC,inactive,7.6,–
> 100,COc1ccc(-c2cn(Cc3cc(-c4ccc(OC)c(OC)c4)no3)nn2)c(C)c1,inactive,13.6,–
> 100,O=[N+]([O-])c1ccc(-c2cn(Cc3cc(-c4ccccc4)no3)nn2)cc1,inactive,46.9,–
